Assay results taken from ChEMBL document CHEMBL1201862, “PubChem BioAssay data set” (2004).
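Assay format: 96-well plates, 48-hour exposure. GI50 is the concentration that inhibits growth by half.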 Active and inactive are the calls of the source. Rule as the data show it: active = GI50 up to about 1.1 µM and inactive = higher.

What was measured:
Test in all cases: NCI-60 cell line screen, 48 h
HCT-15 = system: HCT-15
A549 = system: A549
SK-OV-3 = system: SK-OV-3
IGROV-1 = system: IGROV-1
SF-295 = system: SF-295
M14 = system: M14
NCI-H522 = system: NCI-H522
Malme-3M = system: Malme-3M
SK-MEL-28 = system: SK-MEL-28
TK-10 = system: TK-10
SW-620 = system: SW-620
U-251 = system: U-251
HCC 2998 = system: HCC 2998
HOP-92 = system: HOP-92
OVCAR-4 = system: OVCAR-4
CAKI-1 = system: CAKI-1
SR = system: SR

| Structure (SMILES) | GI50 (HCT-15) | GI50 (A549) | GI50 (SK-OV-3) | GI50 (IGROV-1) | GI50 (SF-295) | GI50 (M14) | GI50 (NCI-H522) | GI50 (Malme-3M) | GI50 (SK-MEL-28) | GI50 (TK-10) | GI50 (SW-620) | GI50 (U-251) | GI50 (HCC 2998) | GI50 (HOP-92) | GI50 (OVCAR-4) | GI50 (CAKI-1) | GI50 (SR) |
| --- | --- | --- | --- | --- | --- | --- | --- | --- | --- | --- | --- | --- | --- | --- | --- | --- | --- |
| COC1(OC)CC2C(=O)N(Cc3ccccc3)C1CC2S(=O)(=O)c1ccccc1 (stereo not given) | > 100 µM | > 100 µM (inactive) | > 100 µM (inactive) | > 100 µM (inactive) | > 100 µM (inactive) | > 100 µM (inactive) | > 100 µM (inactive) | > 100 µM (inactive) | > 100 µM (inactive) | > 100 µM (inactive) | > 100 µM (inactive) | > 100 µM (inactive) | – | – | – | – | – |
| Cn1cc(NC(=O)c2cc(NC(=O)CCCCCCCCC(=O)Nc3cc(C(=O)Nc4cc(C(=O)NCCC(N)N)n(C)c4)n(C)c3)cn2C)cc1C(=O)NCCC(=N)N | 35.4 µM | 16.9 µM (inactive) | 27.9 µM (inactive) | 24.5 µM (inactive) | 23.3 µM (inactive) | 22.3 µM (inactive) | 8.99 µM (inactive) | 0.935 µM (active) | 12.1 µM (inactive) | 18.2 µM (inactive) | 19.6 µM (inactive) | 17 µM (inactive) | 24.7 µM (inactive) | 36.6 µM (inactive) | 34.7 µM (inactive) | 22.5 µM (inactive) | – |
| CCC12C=CCN3CCC4(C(=C(C(=O)OC)C1)Nc1ccccc14)[C@H]32 (stereo not given in full) | 40.3 µM | 34.7 µM (inactive) | 21.8 µM (inactive) | 39.1 µM (inactive) | 28.3 µM (inactive) | 21.6 µM (inactive) | 22.1 µM (inactive) | 42.4 µM (inactive) | 41.7 µM (inactive) | 68.9 µM (inactive) | 26 µM (inactive) | – | 33.3 µM (inactive) | 23.4 µM (inactive) | 29.4 µM (inactive) | > 100 µM (inactive) | 0.0364 µM (active) |
| COc1cc(C(C#N)NNC(=O)c2ccccc2O)ccc1O (stereo not given) | 4.06 µM | 0.662 µM (active) | 3.18 µM (inactive) | 1.54 µM (inactive) | 3.28 µM (inactive) | 2.79 µM (inactive) | 3.14 µM (inactive) | 9.4 µM (inactive) | 30.6 µM (inactive) | 4.11 µM (inactive) | 8.32 µM (inactive) | 0.843 µM (active) | – | 2.98 µM (inactive) | 5.33 µM (inactive) | 5.46 µM (inactive) | > 100 µM (inactive) |
| C/N=c1\ss/c(=N\C(=S)N(C)C)n1C | > 100 µM | > 100 µM (inactive) | > 100 µM (inactive) | > 100 µM (inactive) | > 100 µM (inactive) | > 100 µM (inactive) | – | > 100 µM (inactive) | > 100 µM (inactive) | 41.1 µM (inactive) | > 100 µM (inactive) | > 100 µM (inactive) | > 100 µM (inactive) | > 100 µM (inactive) | > 100 µM (inactive) | > 100 µM (inactive) | > 100 µM (inactive) |
| CCC12C=CCN3CCC4(c5cc(C6(C(=O)OC)CCCCCc7c6[nH]c6ccccc76)c(OC)cc5N(C)C4C(O)(C(=O)OC)C1OC(C)=O)C32 (stereo not given) | 2.1 µM | 3.02 µM (inactive) | – | 2.16 µM (inactive) | 1.91 µM (inactive) | 2.64 µM (inactive) | – | 1.87 µM (inactive) | 2.23 µM (inactive) | 2.39 µM (inactive) | 3.3 µM (inactive) | 2.08 µM (inactive) | 2.04 µM (inactive) | 2.26 µM (inactive) | 2.95 µM (inactive) | 2.7 µM (inactive) | 2.54 µM (inactive) |
| CO[C@@]12CC(=O)/C(=C(O)\C=C\c3ccccc3)C(=O)[C@]1(OC)Cc1ccccc1O2 | 20 µM | 25.7 µM (inactive) | 54 µM (inactive) | 54 µM (inactive) | 29.8 µM (inactive) | 28.1 µM (inactive) | 29.9 µM (inactive) | 91 µM (inactive) | 22.4 µM (inactive) | 42.8 µM (inactive) | 31.3 µM (inactive) | 21.1 µM (inactive) | 22.3 µM (inactive) | 48.6 µM (inactive) | 53.8 µM (inactive) | – | – |
| CCOc1ccc(NC2=NC(=O)C(CC(=O)Nc3ccccc3[N+](=O)[O-])S2)cc1 (stereo not given) | > 100 µM | > 100 µM (inactive) | – | > 100 µM (inactive) | > 100 µM (inactive) | > 100 µM (inactive) | > 100 µM (inactive) | > 100 µM (inactive) | > 100 µM (inactive) | > 100 µM (inactive) | > 100 µM (inactive) | > 100 µM (inactive) | > 100 µM (inactive) | > 100 µM (inactive) | > 100 µM (inactive) | > 100 µM (inactive) | > 100 µM (inactive) |
| COC1=CCC=C(C[C@@H]2NCCc3cc(OC)c(OC)cc32)C1 | > 100 µM | > 100 µM (inactive) | > 100 µM (inactive) | > 100 µM (inactive) | > 100 µM (inactive) | > 100 µM (inactive) | > 100 µM (inactive) | > 100 µM (inactive) | > 100 µM (inactive) | > 100 µM (inactive) | > 100 µM (inactive) | > 100 µM (inactive) | > 100 µM (inactive) | 41.5 µM (inactive) | > 100 µM (inactive) | > 100 µM (inactive) | – |
| CCNC1C2(CCCCC2)NC(=O)C12CCCCC2 (stereo not given) | > 100 µM | > 100 µM (inactive) | > 100 µM (inactive) | > 100 µM (inactive) | > 100 µM (inactive) | > 100 µM (inactive) | – | > 100 µM (inactive) | > 100 µM (inactive) | > 100 µM (inactive) | > 100 µM (inactive) | > 100 µM (inactive) | > 100 µM (inactive) | – | > 100 µM (inactive) | > 100 µM (inactive) | – |
| Cc1cc(C)n(-c2ccnc3cc(Cl)ccc23)n1 | > 100 µM | > 100 µM (inactive) | > 100 µM (inactive) | > 100 µM (inactive) | > 100 µM (inactive) | > 100 µM (inactive) | – | > 100 µM (inactive) | > 100 µM (inactive) | > 100 µM (inactive) | > 100 µM (inactive) | > 100 µM (inactive) | > 100 µM (inactive) | > 100 µM (inactive) | > 100 µM (inactive) | – | > 100 µM (inactive) |
| O=C(NCCNCCO)N/N=C/c1ccccc1 | > 100 µM | > 100 µM (inactive) | > 100 µM (inactive) | > 100 µM (inactive) | > 100 µM (inactive) | > 100 µM (inactive) | > 100 µM (inactive) | > 100 µM (inactive) | > 100 µM (inactive) | > 100 µM (inactive) | > 100 µM (inactive) | > 100 µM (inactive) | – | – | > 100 µM (inactive) | – | – |
| O=c1cccccc1NCCNc1cccccc1=O | > 100 µM | > 100 µM (inactive) | > 100 µM (inactive) | > 100 µM (inactive) | > 100 µM (inactive) | > 100 µM (inactive) | > 100 µM (inactive) | 13.9 µM (inactive) | – | – | > 100 µM (inactive) | > 100 µM (inactive) | – | > 100 µM (inactive) | > 100 µM (inactive) | > 100 µM (inactive) | > 100 µM (inactive) |
| O=C(O)C1C2CCC(O2)C1C(=O)N1CCCCC1 (stereo not given) | 12.1 µM | 22.8 µM (inactive) | 15.7 µM (inactive) | 30.5 µM (inactive) | 10.4 µM (inactive) | 12.7 µM (inactive) | 4.88 µM (inactive) | 10.6 µM (inactive) | 5.83 µM (inactive) | 2.99 µM (inactive) | 3.43 µM (inactive) | 4.2 µM (inactive) | 4.11 µM (inactive) | 2.38 µM (inactive) | 10.8 µM (inactive) | – | 3.68 µM (inactive) |
| CCOC(=O)NC(=O)c1cn(C2OC(COC(=O)CCCCCCCCC(=O)OCC3OC(n4cc(C(=O)NC(=O)OCC)c(=O)[nH]c4=O)C4OC(C)(C)OC34)C3OC(C)(C)OC32)c(=O)[nH]c1=O (stereo not given) | > 100 µM | 90.4 µM (inactive) | – | > 100 µM (inactive) | > 100 µM (inactive) | 63.4 µM (inactive) | – | > 100 µM (inactive) | 84.1 µM (inactive) | > 100 µM (inactive) | 35.8 µM (inactive) | – | 57.3 µM (inactive) | 67.1 µM (inactive) | 57 µM (inactive) | > 100 µM (inactive) | 78.5 µM (inactive) |
| Cc1c(O)c(O)cc[n+]1C1OC(CO)C(O)C1O (stereo not given) | > 100 µM | > 100 µM (inactive) | > 100 µM (inactive) | > 100 µM (inactive) | – | > 100 µM (inactive) | > 100 µM (inactive) | > 100 µM (inactive) | > 100 µM (inactive) | > 100 µM (inactive) | > 100 µM (inactive) | > 100 µM (inactive) | > 100 µM (inactive) | > 100 µM (inactive) | > 100 µM (inactive) | > 100 µM (inactive) | – |
| COC(=O)C1=C(C)N(NC(=O)c2cccc(Cl)c2)C(C)(O)C12CCOC2=O (stereo not given) | > 100 µM | > 100 µM (inactive) | > 100 µM (inactive) | > 100 µM (inactive) | > 100 µM (inactive) | > 100 µM (inactive) | > 100 µM (inactive) | > 100 µM (inactive) | > 100 µM (inactive) | – | > 100 µM (inactive) | > 100 µM (inactive) | > 100 µM (inactive) | – | > 100 µM (inactive) | > 100 µM (inactive) | > 100 µM (inactive) |
| Cc1csc(=S)n1OC(=O)NC1CCCCC1 | > 100 µM | > 73.3 µM (inactive) | > 100 µM (inactive) | > 100 µM (inactive) | > 100 µM (inactive) | 40.9 µM (inactive) | 18.1 µM (inactive) | > 100 µM (inactive) | > 34.6 µM (inactive) | > 100 µM (inactive) | > 56.8 µM (inactive) | 63.8 µM (inactive) | > 100 µM (inactive) | 7.89 µM (inactive) | – | > 100 µM (inactive) | 12.1 µM (inactive) |
